Laboratory results reported in patent US20090036474A1, “Quinazoline derivatives for use against cancer” (priority 2004, published 2009).

Target: T1, phospho-Tyr751 PDGFRβ (Homo sapiens, UniProt P09619)
T1 construct: phosphorylation of PDGFR expressed on MG63 osteosarcoma cells; endogenous in cells; host or cells: MG63 osteosarcoma cells
Test: In vitro phospho-Tyr751 PDGFRβ ELISA assay in MG63 osteosarcoma cells, Test (b)
Format: cell-based
Conditions: MG63 cells stimulated with PDGFBB, read-out: IC50 versus phospho-Tyr751 PDGFRβ
Description: This assay uses a conventional ELISA method to determine the ability of test compounds to inhibit phosphorylation of tyrosine in PDGFRβ.
An MG63 osteosarcoma cell line [American Type Culture Collection (ATCC) CCL 1427] was routinely maintained at 37° C. with 7.5% CO2 in Dulbecco's modified Eagle's growth medium (DMEM; Sigma-Aldrich; Catalogue No. D6546) containing 10% foetal calf serum (FCS; Sigma-Aldrich; Catalogue No. F7524) and 2 mM L-glutamine (Invitrogen Ltd., Paisley, UK; Catalogue No. 25030-024).
For the assay, the cells were detached from the culture flask using a trypsin/ethylenediaminetetraacetic acid (EDTA) mixture (Invitrogen Ltd.; Catalogue No. 15400-054) and resuspended in test media comprising DMEM without phenol red (Sigma-1-Aldrich; Catalogue No. D5921) containing 1% charcoal-stripped-foetal calf serum (FCS) (Sigma-Aldrich; Catalogue No. F7524, stripped by incubation with dextran-coated activated charcoal at 55° C. for 30 minutes with continuous stirring followed by removal of the charcoal by centrifugation and filter sterilisation) and 2 mM L-glutamine (Invitrogen Ltd., Catalogue No. 25030-024) to give 6×10^4 cells per ml. […]

T1 sequence (P09619 33-1106): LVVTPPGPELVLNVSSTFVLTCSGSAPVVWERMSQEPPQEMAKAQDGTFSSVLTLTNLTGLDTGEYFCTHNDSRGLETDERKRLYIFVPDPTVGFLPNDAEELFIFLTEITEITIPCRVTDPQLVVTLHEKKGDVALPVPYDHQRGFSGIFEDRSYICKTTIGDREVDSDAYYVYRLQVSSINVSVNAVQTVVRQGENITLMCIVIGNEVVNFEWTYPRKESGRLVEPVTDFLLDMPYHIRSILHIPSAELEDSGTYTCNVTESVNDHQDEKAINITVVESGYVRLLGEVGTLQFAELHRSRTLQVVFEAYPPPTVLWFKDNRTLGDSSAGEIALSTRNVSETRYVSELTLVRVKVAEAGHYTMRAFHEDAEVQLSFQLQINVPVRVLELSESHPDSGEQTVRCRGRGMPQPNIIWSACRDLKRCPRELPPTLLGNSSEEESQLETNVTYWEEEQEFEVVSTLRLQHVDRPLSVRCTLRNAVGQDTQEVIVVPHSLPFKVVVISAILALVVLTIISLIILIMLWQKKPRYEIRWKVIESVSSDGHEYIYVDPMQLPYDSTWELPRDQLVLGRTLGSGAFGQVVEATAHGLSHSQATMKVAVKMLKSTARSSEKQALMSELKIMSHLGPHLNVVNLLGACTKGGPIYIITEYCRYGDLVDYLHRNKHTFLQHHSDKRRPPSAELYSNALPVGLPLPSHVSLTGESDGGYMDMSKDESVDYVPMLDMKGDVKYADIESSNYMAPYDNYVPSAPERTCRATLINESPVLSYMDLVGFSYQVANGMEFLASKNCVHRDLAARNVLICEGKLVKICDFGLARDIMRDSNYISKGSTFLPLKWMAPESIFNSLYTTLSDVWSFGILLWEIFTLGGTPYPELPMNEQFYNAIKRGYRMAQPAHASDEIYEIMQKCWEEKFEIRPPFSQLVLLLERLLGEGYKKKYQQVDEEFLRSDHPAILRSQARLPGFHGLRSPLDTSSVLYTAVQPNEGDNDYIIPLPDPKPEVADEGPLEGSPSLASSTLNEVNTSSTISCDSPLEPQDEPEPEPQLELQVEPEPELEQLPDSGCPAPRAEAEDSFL

Work on `COc1cc2ncnc(Oc3cnn(CC(=O)Nc4cccc5c4OCO5)c3)c2cc1OC` [Example 2, N-(2,3-methylenedioxyphenyl)-2-[4-(6,7-dimethoxyquinazolin-4-yloxy)pyrazol-1-yl]acetamide] yielded an IC50 of about 3 nM.
